The subject of assay [1] is UBR5-RARA. Briefly: In vitro FLAG-UBR5 pull-down of His-tagged RARA. Type of assay: binding, human. The conditions noted are these: 50 μM ligand, anti-His western, 25 mM HEPES pH 7.4, 125 mM NaCl, 0.05% TWEEN-20. The procedure:
12 μL of FLAG M2 slurry were equilibrated with binding buffer (25 mM HEPES pH 7.4, 125 mM NaCl, 0.05% TWEEN-20). The resin was pelleted and excess buffer removed. 60 μL of fresh binding buffer was re-added, followed by addition of 15 pmol (2.5 μL ofa6 μM solution) of purified FLAG-UBR5 protein and incubated on a rotating wheel at 4°C for 60–90 minutes. The resin was pelleted, excess buffer removed, and 150 μL fresh binding buffer (supplemented with 50 μM ligand of interest or DMSO) added, followed by 150 pmol protein (binding partner protein of interest) and incubated for another 60 minutes. The resin was pelleted, excess buffer removed and washed with 400 μL of binding buffer (supplemented with ligand of interest or DMSO), and this process was repeated three times. The resin was pelleted, excess buffer removed and 45 μL of binding buffer supplemented with 1 mg/mL 3xFLAG peptide was added to elute proteins over 30 minutes on a rotating wheel at room temperature. The resin was pelleted, and 40 μL of the supernatant was collected and mixed with 12 μL of 5xSDS gel loading buffer. 6 μL of these samples were applied to SDS-PAGE on a 4–20% gradient gel (Biorad). The gel was transferred to a nitrocellulose membrane using the Trans-Blot Turbo Transfer System (Biorad). Following blocking with 5% skim milk solution in TBST, primary antibodies targeting the NR proteins were added in TBST and incubated overnight at 4 °C. The following day, membranes were washed thrice with TBST buffer and incubated for 45 minutes with fluorescent secondary antibody (Invitrogen A11357), followed by three more washes with TBST. Imaging was performed on a Licor Odyssey system, scanned at 800 nm.

In assay [2] the test system is UBR5-RARA/RXRA. Briefly: RARE dsDNA incorporation into UBR5-RARA/RXRA complex. Format: binding, human.
Method: A.Western blot (anti-His)showingin vitroFLAG-UBR5 pulldownofpurified His-tagged RARA/RXRA heterodimer, showing thata fluorescein-labelled 24-merdsDNAcontaining a DR5 Retinoic Acid
Immediately before preparing samples for SDS-PAGE, fluorescence
counts were measured at 488 nm to assessdsDNAincorporation. Fluorescence counts were normalized to the –dsDNA, DMSO condition as abaseline.
The test system of assay [3] is PML-RARA. Set-up: method as in PMID 10611294, PMID 20378816. To be noted: ATRA targets RARA, ATO targets PML, ref [6],[11]; cited from earlier work.
Assay [4] concerns PML-RARA-GFP reporter. Briefly: PML-RARA-GFP reporter degradation. Type of assay: cell-based, human. To be noted: equivalent single-residue glutamate substitutions. The procedure: (§1) Reporter cell lines were seeded in triplicate at a density of 1 million cells/ml in 100 μl per well in a 96 well plate and measured once. Ligand was added by Digital Dispenser (Tecan), and incubated at 37°C for the appropriate time before reading by flow cytometry. Cells were analyzed for GFP vs mCherry expression. GFP expression was normalized to mCherry signal and ligand treatments were compared to DMSO controls.

Assay [5] relates to NB4 cells. Briefly: NB4 viability (relative cell counts). Format: cell-based, human. To be noted: shUBR5 vs shCTRL, n = 4.
Method: (D) Western blotting of NB4 cells transduced with shRNAs against luciferase (shCTRL) or UBR5 treated with or without ATRA. (E) Viability by relative cell counts of NB4 cells transduced with control or UBR5 shRNAs (two shRNAs per condition, combined) following treatment with 1 μM ATRA for 24 h. (n = 4, two-sided t test). […] (NS, not significant, *p < 0.05, **p < 0.005, ***p < 0.0005, ****p < 0.00005, error bars represent SEM.)
All flow cytometry-based assays (degradation and viability assays) were run in triplicate (n=3) unless otherwise specified where n represents a distinct flow cytometric specimen (a well or tube containing ~100,000 cells). P-values were calculated using GraphPad Prism two-sided t-test and are centered around the mean and error bars represent the SEM unless otherwise specified.
K. NB4 cell viability following
transduction of shRNAs againstluciferase or UBR5 and ATRA treatment for 3 days.Data from two shRNAs are combined.(n=4, two sided t-test)NS,not significant, *p < 0.05, **p <0.005, ***p<
In assay [6] the test system is RARA reporter. Briefly: RARA reporter degradation (GFP/mCherry). Format: cell-based, human. The procedure:
as §1

The test system of assay [7] is UBR5-RARA/RXRA. The assay is described as follows: In vitro FLAG-UBR5 pull-down of His-tagged RARA/RXRA heterodimer. Format: binding, human. To be noted: 50 μM ATRA, mutant proteins.
Method: The resin was pelleted and excess buffer removed. 60 μL of fresh binding buffer was re-added, followed by addition of 15 pmol (2.5 μL ofa6 μM solution) of purified FLAG-UBR5 protein and incubated on a rotating wheel at 4°C for 60–90 minutes. The resin was pelleted, excess buffer removed, and 150 μL fresh binding buffer (supplemented with 50 μM ligand of interest or DMSO) added, followed by 150 pmol protein (binding partner protein of interest) and incubated for another 60 minutes. The resin was pelleted, excess buffer removed and washed with 400 μL of binding buffer (supplemented with ligand of interest or DMSO), and this process was repeated three times. The resin was pelleted, excess buffer removed and 45 μL of binding buffer supplemented with 1 mg/mL 3xFLAG peptide was added to elute proteins over 30 minutes on a rotating wheel at room temperature. The resin was pelleted, and 40 μL of the supernatant was collected and mixed with 12 μL of 5xSDS gel loading buffer. 6 μL of these samples were applied to SDS-PAGE on a 4–20% gradient gel (Biorad). The gel was transferred to a nitrocellulose membrane using the Trans-Blot Turbo Transfer System (Biorad). Following blocking with 5% skim milk solution in TBST, primary antibodies targeting the NR proteins were added in TBST and incubated overnight at 4 °C. […]
For assay [8], the system named is RARA complexes (NCOR, NCOA, UBR5). The assay is described as follows: RARA-GFP immunoprecipitation (IP-MS and IP-western). Format: cell-based, human.
Method: To examine the temporal dynamics of this competition in cells, we performed sequential RARA immunoprecipitation/mass spectrometry (IP/MS) in the presence of MG132 at 0, 4, and 16 h following ATRA treatment.
Reporter cells (up to 100 million) were treated with ligand (ATRA, dexamethasone) and allowed to incubate for different time points. […] Lysates were incubated with GFP-Trap Magnetic Agarose beads (ChromoTek, GTMA-20) overnight at 4°C on a rotator. Beads were magnetically removed and washed three times with Pierce IP Lysis Buffer with ligand added before boiling in 1x NuPAGE LDS Sample Buffer (ThermoFischer, NP0007).
After the washing step, samples were eluted using Glycine-HCl buffer (0.2 M, pH 2.4) and rebuffered to pH 8.0. The IP eluates were reduced with 10 mM TCEP for 30 min at room temperature, and then alkylated with 15 mM iodoacetamide for 45 min at room temperature in the dark. Alkylation was quenched by the addition of 10 mM DTT. Proteins were isolated by methanol-chloroform precipitation. The protein pellets were dried and then resuspended in 50 μL 200 mM EPPS pH 8.0. The resuspended protein samples were digested with 2 μg LysC overnight at room temperature followed by the addition of 0.5 μg Trypsin for 6 h at 37°C. Protein digests were dried, resuspended in 100 μL 1% formic acid, and desalted using 10-layer C18 stage-tips before being analyzed by LC-MS.
Assay [9] deals with RARA and UBR5 on chromatin in NB4 cells. Briefly: ChIP-seq of RARA and UBR5 in NB4 cells. Format: cell-based, human. To be noted: NB4, ATRA 8 and 24 h vs DMSO.
Method: Cell lines were expanded (up to 50 million), treated with ligand, and incubated at 37 °C. Cells were pelleted by centrifugation for 5 minutes, washed twice with cold PBS, and resuspended, in 5 ml of room temperature PBS. 20 μl of 0.5M Disuccinimidyl glutarate (DSG) (ThermoFisher), was added and incubated for 30 minutes at room temperature. Cells were pelleted by centrifugation and resuspended in 8.325 ml of PBS and 8.325 ml of 2% formaldehyde and incubated for 30 minutes at room temperature. Cross-linking was quenched by the addition of 1665 μl of 1 M Tris-HCl pH 8.0 and 832.5 μl of 2.5 M glycine. Cells were pelleted and washed twice with PBS. Cross-linked cells were resuspended in LB1 Buffer (50mM HEPES-KOH, pH7.5, 140mM NaCl, 1mM EDTA, 10% Glycerol, 0.5% NP-40, 0.25% Triton X-100 in distilled water) and rotated for 10 minutes at 4C. Cells were pelleted and resuspended in LB2 (10mM Tris-HCl, pH 8.0, 200mM NaCl, 1mM EDTA, 0.5mM EGTA in distilled water) and rotated for 10 minutes at 4C. Cells were pelleted and resuspended in LB3 (10mM Tris-HCL, pH 8.0, 100mM NaCl, 1mM EDTA, 0.5mM EGTA, 0.1% Na-deoxycholate, 0.5% Na-Lauroylsarcosine, 1% Triton X-100, in distilled water) sonicated (Covaris, E220). […] Fragment length and concentrations were assessed using TapeStation (Agilent) and Qubit (ThermoFisher), and libraries were sequenced on an Illumina NextSeq 550 sequencer. […]
For assay [10], the system named is RARA and PML-RARA. Briefly: Western blotting of RARA / PML-RARA degradation in NB4 cells. Type of assay: cell-based, human. The procedure: Membranes were blocked for 30 minutes to 1 hour at room temperature in Odyssey Blocking Buffer/PBS (LI-COR Biosciences), and incubated with primary antibodies at 4 °C overnight. Stained membranes were washed three times in Tris-buffered saline with Tween 20 (TBS-T) and incubated for 1 hour at room temperature with secondary IRDye-conjugated antibodies (LI-COR Biosciences). Membranes were washed three times in TBS-T before imaging (Odyssey Imaging System, LI-COR Biosciences).
Background: Immunoblotting shows a protein as a band on a membrane.

Assay [11] relates to RARA and RXRA protein levels in NB4 cells. Briefly: Whole-proteome mass spectrometry of NB4 cells. Type of assay: cell-based, human. The conditions noted are these: ATRA 24 h, n = 3 per condition. The procedure: Cells were lysed by addition of lysis buffer (8 M Urea, 50 mM NaCl, 50 mM 4-(2-hydroxyethyl)-1-piperazineethanesulfonic acid (EPPS) pH 8.5, Protease and Phosphatase inhibitors) and homogenization by bead beating (BioSpec) for three repeats of 30 seconds at 2400. Bradford assay was used to determine the final protein concentration in the clarified cell lysate. […] Desalted peptides were dried in a vacuum-centrifuged and reconstituted in 0.1% formic acid for LC-MS analysis.
Data were collected using a TimsTOF Pro2 (Bruker Daltonics, Bremen, Germany) coupled to a nanoElute LC pump (Bruker Daltonics, Bremen, Germany) via a CaptiveSpray nano-electrospray source.
The ddaPASEF parameters included: 100% duty cycle using accumulation and ramp times of 50 ms each, 1 TIMS-MS scan and 10 PASEF ramps per acquisition cycle. […] The quadrupole isolation width was set to 2 m/z for m/z <700 and 3 m/z for m/z >800, with the m/z between 700–800 m/z being interpolated linearly. […] To perform diaPASEF, the precursor distribution in the DDA m/z-ion mobility plane was used to design an acquisition scheme for DIA data collection which included two windows in each 50 ms diaPASEF scan. […]

In assay [12] the test system is ATRA-induced gene expression in NB4 cells. The assay is described as follows: RNA sequencing of NB4 cells. Type of assay: cell-based, human. The conditions noted are these: NB4, ATRA 0, 8, 24, 48 h. The method, then: Cell lines were expanded, treated with ligand, and incubated at 37C. Cells were pelleted by centrifugation for 5 minutes, washed with cold PBS, and RNA was isolated by RNeasy kit (Qiagen) per manufacturer’s instructions. RNA was sent to Novogene for library preparation and sequencing, or prepared for sequencing (NEBNext, New England Biolabs) and sequenced on an Illumina NextSeq 550 sequencer.
Paired-end reads were aligned to the hg38.p13[81],[82] reference genome with the STAR[83] (v5.2.7b) aligner as part of the RSEM[99] command line tool. Gene transcript abundance was further quantified from aligned fragments using RSEM to generate a gene-by-sample matrix of expected counts. Differential expression was tested, as with the ChIP-seq data, using the DESeq[88],[93]2 and ashr[94] pipeline, this time calculating sample-specific scale factor offset using the method of median-ratio as implemented in the R package EBSeq[100] (v1.36.0). For plotting in heatmaps, genes were selected based on ChIP-seq peak annotation and subset.

`CC1=C(/C=C/C(C)=C/C=C/C(C)=C/C(=O)O)C(C)(C)CCC1` [ATRA, all-trans-retinoic acid]: in [1], the “binding of RARA to UBR5” value is recorded as “robustly induced binding of RARA to UBR5”. Also, the “DNA incorporation into UBR5-RARA/RXRA complex” value in assay [2] is given as “DNA was readily incorporated into a UBR5-RARA/RXRA complex”. The “PML-RARA degradation (literature)” value in assay [3] was “PML-RARA is degraded therapeutically”. Besides, in [4], the “degradation of PML-RARA-GFP reporter, cleft mutants” value is recorded as “blocked ATRA-induced degradation of the PML-RARA-GFP reporter in cells”. For the same compound, the “ATRA sensitivity upon UBR5 knockdown” value in [5] was “decreased ATRA sensitivity in NB4 cells”. Also, the “requirement of UBR5 HECT domain for RARA reporter degradation” value in [6] (HEK293, CRISPR-edited UBR5 deficient of HECT domain, n = 3) is “necessary for ATRA-induced RARA reporter degradation”. Further, the “degradation of RARA reporter, I254 / I258 glutamate mutants” value in assay [6] (I254 and I258 mutations, n = 3) is listed as “significantly reduced ATRA-induced degradation”. In addition, the “RARA LBD reporter degradation” value in [6] (RARA LBD only, ATRA) is given as “still mediated ATRA-induced reporter degradation”. Moreover, the “degradation of RARA reporter, V240 glutamate mutant” value in assay [6] (V240 single mutation, n = 3) is “abolished ATRA-induced degradation”. In addition, in [7], the “agonist-induced binding of RARA V240E / RXRA V280E to UBR5” value is on record as “abolished agonist-induced binding to UBR5 in vitro”. Besides, the “RARA-associated NCOA1 and UBR5 by IP-western” value in assay [8] (U937 RARA-GFP, 10 µM ATRA / MG132, 0-24 h) was “initial NCOA1 binding to RARA after 4 h of ATRA treatment, diminishing NCOA1 binding from 4 to 16 h, and increased binding of UBR5 at 16 and 24 h”. Also, the “RARA-associated UBR5 by IP/MS” value in assay [8] (with MG132, 0, 4, 16 h ATRA) is given as “enrichment of UBR5 peptides at 16 h post ATRA treatment”. In addition, in assay [9], the “RARA ChIP-seq peaks” value was “lost following ATRA treatment” and the “UBR5 ChIP-seq binding at RARA loci” value is “binding was strengthened following ATRA treatment”. In [10] (10 µM ATRA with MG132 or MLN4924), the “RARA and PML-RARA degradation, proteasome / neddylation dependence” value is given as “dependent on the proteasome, but not neddylation”. Also, the “effect of UBR5 knockdown on PML-RARA degradation” value in [10] (UBR5 shRNA) is given as “prevented ATRA-induced degradation of PML-RARA in NB4 cells”. For the same compound, the “effect of UBR5 knockdown on RARA degradation” value in [10] (UBR5 shRNA vs control shRNA) is listed as “rescued ATRA-induced RARA degradation”. The “protein levels of RARA and RXRA” value in [11] was “significantly and selectively decreased”. Moreover, the “effect of UBR5 knockdown on ATRA-induced transcription” value in assay [12] is “strongly decreased transcriptional activation”.

Values taken from article PMC11134608, “UBR5 forms ligand-dependent complexes on chromatin to regulate nuclear hormone receptor stability” (Molecular cell, 2023).
